Activity calls are given as the source filed them. The rule behind the calls is not given here.
Experiments:
Mus musculus [1] = assay: Anti-inflammatory activity against MOG35-55-induced experimental autoimmune encephalomyelitis C57BL/6 mouse model assessed as methylation of CpG sites of IL18 gene promoter in brain at 600 mg/kg, ig for 14 days starting from 12th day of immunization by PCR analysis (reference value: 29.2 +/-8%); format: functional; conditions: time 14 day
Mus musculus [2] = assay: Anti-inflammatory activity against MOG35-55-induced experimental autoimmune encephalomyelitis C57BL/6 mouse model assessed as increase in serum IL-4 level at 600 mg/kg/day, ig for 14 days starting from 12th day of immunization by ELISA; format: functional, organism-based; conditions: time 14.0 day
Mus musculus [3] = assay: Anti-inflammatory activity against MOG35-55-induced experimental autoimmune encephalomyelitis C57BL/6 mouse model assessed as fold change in HIF1A gene expression in brain at 600 mg/kg/day, ig for 14 days starting from 12th day of immunization by RT-qPCR analysis relative to control; format: functional; conditions: time 14 day
Mus musculus [4] = assay: Anti-inflammatory activity against MOG35-55-induced experimental autoimmune encephalomyelitis C57BL/6 mouse model assessed as methylation of CpG sites of IL10RA gene promoter in brain at 600 mg/kg, ig for 14 days starting from 12th day of immunization by PCR analysis (reference value: 34.9 +/-4%); format: functional; conditions: time 14 day
Mus musculus [5] = assay: Anti-inflammatory activity against MOG35-55-induced experimental autoimmune encephalomyelitis C57BL/6 mouse model assessed as fold change in GFAP gene expression in brain at 300 mg/kg/day, ig for 14 days starting from 12th day of immunization by RT-qPCR analysis relative to control; format: functional; conditions: time 14 day
Mus musculus [6] = assay: Anti-inflammatory activity against MOG35-55-induced experimental autoimmune encephalomyelitis C57BL/6 mouse model assessed as reduction in EAE symptoms by measuring reduction in cumulative scores at 600 mg/kg/day, ig for 14 days starting from 12th day of immunization and measured from day 12 to 38 post-immunization; format: functional, organism-based; conditions: time 1-26 day
Mus musculus [7] = assay: Anti-inflammatory activity against MOG35-55-induced experimental autoimmune encephalomyelitis C57BL/6 mouse model assessed as fold change in TNF-alpha gene expression in brain at 300 mg/kg/day, ig for 14 days starting from 12th day of immunization by RT-qPCR analysis relative to control; format: functional; conditions: time 14 day
Mus musculus [8] = assay: Anti-inflammatory activity against MOG35-55-induced experimental autoimmune encephalomyelitis C57BL/6 mouse model assessed as reduction in serum Th1 cytokine level by measuring reduction in IFNG level at 600 mg/kg/day, ig for 14 days starting from 12th day of immunization by ELISA; format: functional, organism-based; conditions: time 14.0 day
Mus musculus [9] = assay: Anti-inflammatory activity against MOG35-55-induced experimental autoimmune encephalomyelitis C57BL/6 mouse model assessed as upregulation of MBP protein expression in brain at 300 to 600 mg/kg/day, ig for 14 days starting from 12th day of immunization by western blot analysis relative to control; format: functional; conditions: dose 300-600 mg/kg/day, time 14 day
Mus musculus [10] = assay: Anti-inflammatory activity against MOG35-55-induced experimental autoimmune encephalomyelitis C57BL/6 mouse model assessed as reduction in serum Th1 cytokine level by measuring reduction in IL-2 level at 0.3 mg/kg/day, ig for 14 days starting from 12th day of immunization by ELISA; format: functional, organism-based; conditions: time 14.0 day
Mus musculus [11] = assay: Anti-inflammatory activity against MOG35-55-induced experimental autoimmune encephalomyelitis C57BL/6 mouse model assessed as fold change in CD4 gene expression in brain at 0.15 mg/kg/day, ig for 14 days starting from 12th day of immunization by RT-qPCR analysis relative to control; format: functional; conditions: time 14 day
Mus musculus [12] = assay: Anti-inflammatory activity against MOG35-55-induced experimental autoimmune encephalomyelitis C57BL/6 mouse model assessed as reduction in serum chemokines level by measuring reduction in CCL5 level at 0.3 mg/kg/day, ig for 14 days starting from 12th day of immunization by ELISA; format: functional, organism-based; conditions: time 14.0 day
Mus musculus [13] = assay: Anti-inflammatory activity against MOG35-55-induced experimental autoimmune encephalomyelitis C57BL/6 mouse model assessed as methylation of CpG sites of […] gene promoter in brain at […], ig for 14 days starting from 12th day of immunization by PCR analysis (reference value: 13.1 +/-8%); format: functional; conditions: time 14 day
Mus musculus [14] = assay: Anti-inflammatory activity against MOG35-55-induced experimental autoimmune encephalomyelitis C57BL/6 mouse model assessed as fold change in MBP gene expression in brain at 0.15 mg/kg/day, ig for 14 days starting from 12th day of immunization by RT-qPCR analysis relative to control; format: functional; conditions: time 14 day
Mus musculus [15] = assay: Anti-inflammatory activity against MOG35-55-induced experimental autoimmune encephalomyelitis C57BL/6 mouse model assessed as fold change in TGFB1 gene expression in brain at 0.3 mg/kg/day, ig for 14 days starting from 12th day of immunization by RT-qPCR analysis relative to control; format: functional; conditions: time 14 day
Mus musculus [16] = assay: Anti-inflammatory activity against MOG35-55-induced experimental autoimmune encephalomyelitis C57BL/6 mouse model assessed as methylation of CpG sites of IL17A gene promoter in brain at […], ig for 14 days starting from 12th day of immunization by PCR analysis (reference value: 58 +/-6%); format: functional; conditions: time 14 day
Mus musculus [17] = assay: Anti-inflammatory activity against MOG35-55-induced experimental autoimmune encephalomyelitis C57BL/6 mouse model assessed as reduction in serum chemokines level by measuring reduction in […] level at 0.3 mg/kg/day, ig for 14 days starting from 12th day of immunization by ELISA; format: functional, organism-based; conditions: time 14.0 day
Mus musculus [18] = assay: Anti-inflammatory activity against MOG35-55-induced experimental autoimmune encephalomyelitis C57BL/6 mouse model assessed as fold change in TNF-alpha gene expression in brain at 0.3 mg/kg/day, ig for 14 days starting from 12th day of immunization by RT-qPCR analysis relative to control; format: functional; conditions: time 14 day
Mus musculus [19] = assay: Anti-inflammatory activity against MOG35-55-induced experimental autoimmune encephalomyelitis C57BL/6 mouse model assessed as fold change in PLP gene expression in brain at 0.15 mg/kg/day, ig for 14 days starting from 12th day of immunization by RT-qPCR analysis relative to control; format: functional; conditions: time 14 day
Mus musculus [20] = assay: Anti-inflammatory activity against MOG35-55-induced experimental autoimmune encephalomyelitis C57BL/6 mouse model assessed as fold change in IL6 gene expression in brain at 0.3 mg/kg/day, ig for 14 days starting from 12th day of immunization by RT-qPCR analysis relative to control; format: functional; conditions: time 14 day
Mus musculus [21] = assay: Anti-inflammatory activity against MOG35-55-induced experimental autoimmune encephalomyelitis C57BL/6 mouse model assessed as fold change in C1S gene expression in brain at 0.15 mg/kg/day, ig for 14 days starting from 12th day of immunization by RT-qPCR analysis relative to control; format: functional; conditions: time 14 day
Mus musculus [22] = assay: Anti-inflammatory activity against MOG35-55-induced experimental autoimmune encephalomyelitis C57BL/6 mouse model assessed as fold change in PLP gene expression in brain at 0.3 mg/kg/day, ig for 14 days starting from 12th day of immunization by RT-qPCR analysis relative to control; format: functional; conditions: time 14 day
Mus musculus [23] = assay: Anti-inflammatory activity against MOG35-55-induced experimental autoimmune encephalomyelitis C57BL/6 mouse model assessed as methylation of CpG sites of […] gene promoter in brain at […], ig for 14 days starting from 12th day of immunization by PCR analysis (reference value: 45 +/-7%); format: functional; conditions: time 14 day

CCCCCCCCCCCCCCCCCCCCCCCCC(=O)O[C@H]1CC[C@]2(C)[C@H]3CC=C4[C@@H]5CC(C)(C)CC[C@]5(CO)CC[C@@]4(C)[C@]3(C)CC[C@H]2C1(C)C
Activity (Mus musculus [1]): 40.5%
Activity (Mus musculus [2]): Active
fold change (FC) (Mus musculus [3]): 1.77
Activity (Mus musculus [4]): 32%
fold change (FC) (Mus musculus [5]): 1.17
Activity (Mus musculus [6]): Active
fold change (FC) (Mus musculus [7]): 1.76
Activity (Mus musculus [8]): Active
fold change (FC) (Mus musculus [9]): 2

CCCCCCCCc1ccc(CCC(N)(CO)CO)cc1 [FINGOLIMOD]
Activity (Mus musculus [10]): Active
fold change (FC) (Mus musculus [11]): 3.06
Activity (Mus musculus [12]): Active
Activity (Mus musculus [13]): 19%
fold change (FC) (Mus musculus [14]): -1.1
fold change (FC) (Mus musculus [15]): 10.7
Activity (Mus musculus [16]): 58.9%
Activity (Mus musculus [17]): Active
fold change (FC) (Mus musculus [18]): -1.46
fold change (FC) (Mus musculus [19]): 1.54
fold change (FC) (Mus musculus [20]): -2.28
fold change (FC) (Mus musculus [21]): 1.91
fold change (FC) (Mus musculus [22]): -2.32
Activity (Mus musculus [23]): 44.9%

Reference: ChEMBL document CHEMBL5226375, “Synthesis and Comprehensive in Vivo Activity Profiling of Olean-12-en-28-ol, 3β-Pentacosanoate in Experimental Autoimmune Encephalomyelitis: A Natural Remyelinating and Anti-Inflammatory Agent” (J Nat Prod, 2023)
